Measured values from patent publication US20160060235A1, “Therapeutic Agent for Type 2 Diabetes” (NATIONAL UNIVERSITY CORPORATION KUMAMOTO UNIVERSITY, priority 2013, published 2016).

Columns and labels:
[1] = test system: islet of Langerhans isolated from a pancreatic β cell-specific Cdkal1-deficient mouse; experiment: Secondary screening: insulin secretion experiment by glucose stimulation; assay type: cell-based; set-up: insulin secretion under low-concentration (2.8 mM) and high-concentration (16.7 mM) glucose stimulation / concentration of insulin secreted into the Ringer solution: unit of the concentration uncertain
Text: The islet of Langerhans was isolated from a pancreatic β cell-specific Cdkal1-deficient mouse (see non-patent document 11) according to the literature (Gotoh M., et al., Transplantation, 1987, 43 (5), p. 725-730). The chest of the mouse was opened under ether anesthesia, and the common bile duct was peeled off. The pancreas swollen by the gradual injection of a collagenase solution (320 U/mL, manufactured by Sigma-Aldrich Corp.) was excised. The pancreas containing collagenase was digested for 30 minutes in a water bath of 37° C. and then dispersed with a pipette. The islet of Langerhans was isolated using a concentration gradient of a Ficoll solution (manufactured by Amersham Pharmacia Biotech Inc.). The islet of Langerhans was incubated for 30 minutes while kept at 37° C. in a Ringer solution (119 mM sodium chloride, 4.74 mM potassium chloride, 1.19 mM monosodium dihydrogen phosphate, 25 mM sodium bicarbonate, 10 mM HEPES, 2.54 mM calcium chloride, 1.19 mM magnesium chloride, and 0.2% BSA) saturated with a mixed gas of 95% O2 and 5% CO2.
Each low-molecular compound found positive in the primary screening was dissolved in DMSO, and this solution was added at a final concentration of 10 mM to a Ringer solution containing glucose to prepare a Ringer solution. A Ringer solution supplemented only with DMSO was prepared as a control.
The isolated mouse islet of Langerhans was first cultured for 30 minutes in a Ringer solution containing a low concentration (2.8 mM) of glucose. Then, the Ringer solution was replaced with a Ringer solution containing the low-molecular compound and the low concentration of glucose. After 30 minutes, the Ringer solution was recovered, and a Ringer solution containing the low-molecular compound and a high concentration (16.7 mM) of glucose was subsequently added thereto. After 30 minutes, the Ringer solution was recovered. The amount of insulin released into the Ringer solution was detected using an insulin detection kit (Libs Insulin-Mouse (S type), manufactured by Shibayagi Co., Ltd) according to the protocol of the kit.

[2] = test system: pancreatic β cell-specific Cdkal1-deficient mouse; experiment: Tertiary screening: glucose tolerance after single administration; assay type: in vivo; details: 1 mg/kg transabdominally, glucose 1 g/kg after 30 minutes, versus saline administration group
Procedure: A pancreatic β cell-specific Cdkal1-deficient mouse and a wild-type mouse were each fasted overnight. Then, eperisone was transabdominally injected at a dose of 1 mg/kg to each mouse. Each control individual was prepared by the transabdominal injection of saline to each of a pancreatic β cell-specific Cdkal1-deficient mouse and a wild-type mouse. After 30 minutes, glucose was transabdominally injected at a dose of 1 g/kg to all of these mice. Blood was collected (5 μL) every 15 minutes from immediately after the administration of glucose. The blood glucose level in the mouse blood was measured using Accu-Chek AVIVA Nano (manufactured by F. Hoffmann-La Roche, Ltd.). The statistical test was conducted by repeated measure of two-way ANOVA.

[3] = test system: pancreatic β cell-specific Cdkal1-deficient mouse; experiment: Glucose tolerance after long-term (14 days) administration; assay type: in vivo; details: 1 mg/kg transabdominally once a day over 14 days, glucose 1 g/kg 36 hours after last dose; versus DMSO administration group
Procedure: Each low-molecular compound found positive in the screening was transabdominally injected once a day over 14 days at a dose of 1 mg/kg to a pancreatic β cell-specific Cdkal1-deficient mouse. A Cdkal1-deficient mouse was prepared as a control by the injection of saline containing DMSO. Finally, glucose was transabdominally injected at a dose of 1 g/kg to all of the mice 36 hours after the administration of the low-molecular compound. Blood was collected (5 μL) from the tail vein every 15 minutes from immediately after the administration of glucose. The blood glucose level in the mouse blood was measured using Accu-Chek AVIVA Nano (manufactured by F. Hoffmann-La Roche, Ltd.). The statistical test was conducted by repeated measure of two-way ANOVA.

[4] = test system: E. coli harboring pACYCDuet-1-Phe; experiment: Primary screening: dual luciferase assay of translation accuracy (frameshift mistranslation reporter); assay type: cell-based; details: versus DMSO control; for relative translation accuracy with the translation accuracy of the control defined as 1: compound at final concentration of 10 μM, shake culture 1 hour; for improvement of translation accuracy as compared with the control (in words): existing therapeutic agents for diabetes, 10 μM
Text: The vector map of the prepared plasmid pACYCDuet-1-Phe (SEQ ID NO: 1) is shown in the left diagram of FIG. 1. The phenylalanine codon TTT was designed as NNN. When translation takes place according to the normal reading frame, the stop codon TAA appears immediately after TTT so that the sequence is not translated into firefly luciferase. On the other hand, if mistranslation occurs in TTT so as to skip one T, the stop codon is circumvented so that the sequence is correctly translated into firefly luciferase. This means that the higher the accuracy of translation is, the lower the fluorescence intensity of firefly luciferase is.
Renilla luciferase gene is also cloned into this plasmid as a control.
The E. coli harboring pACYCDuet-1-Phe was cultured overnight at 37° C. using 100 mL of a culture medium. After confirmation that OD550 reached 0.4 to 1, 1 mL of the culture medium was dispensed, and each low-molecular compound was added thereto at a final concentration of 10 μM. After shake culture for 1 hour, the E. coli was recovered and lysed by suspension in 10 mM Tris-HCl (pH 7.4), 1 mM magnesium chloride, and 0.1 mg/mL lysozyme (manufactured by Wako Pure Chemical Industries, Ltd.).
The activity of the firefly luciferase and the Renilla luciferase was measured using Dual-Luciferase Reporter Assay System (manufactured by Promega Corp.). To 5 μL of the E. coli lysate, 50 μL of an assay solution for the firefly luciferase was added for the measurement. Then, 50 μL of an assay solution for the Renilla luciferase was added thereto for the measurement. An E. coli lysate supplemented only with DMSO was prepared as a control.
The luminescence intensity of the firefly luciferase was corrected against that of the Renilla luciferase by use of the equation given below. This series of experimental approaches is plotted in FIG. 1.
Relative luminescence intensity=Firefly luciferase/Renilla luciferase
Relative translation accuracy=Relative luminescence intensity (from the addition of only DMSO)/Relative luminescence intensity (in the presence of the compound)

Compound | blood glucose level after glucose administration [3] | relative translation accuracy with the translation accuracy of the control defined as 1 [4] | improvement of translation accuracy as compared with the control (in words) [4] | other results
CCc1ccc(C(=O)C(C)CN2CCCCC2)cc1 (stereo not shown) [eperisone] | significantly decreased blood glucose level |  |  | insulin secretion under low-concentration (2.8 mM) and high-concentration (16.7 mM) glucose stimulation ([1]; compound at final concentration of 10 (unit uncertain) in Ringer solution, 30 minutes each): accelerate insulin secretion only under the high-concentration glucose stimulation; relative amount of insulin secreted compared with glibenclamide ([1]; high-concentration (16.7 mM) glucose stimulation, glibenclamide defined as 1): accelerate insulin secretion more highly than glibenclamide; blood glucose level after glucose administration [2]: significantly decreased blood glucose level
CNCCC(Oc1ccc(C(F)(F)F)cc1)c1ccccc1 (stereo not shown) [fluoxetine] | significantly decreased blood glucose level | approximately 1.5 times |  | concentration of insulin secreted into the Ringer solution ([1]; low-concentration (2.8 mM) glucose stimulation, compound at final concentration of 10 (unit uncertain)): significantly improve insulin secretion
COc1ccc(Cl)cc1C(=O)NCCc1ccc(S(=O)(=O)NC(=O)NC2CCCCC2)cc1 [glibenclamide] |  |  | none of the existing therapeutic agents for diabetes were shown to significantly improve translation accuracy | 
CN(C)C(=N)N=C(N)N [metformin] |  |  | none of the existing therapeutic agents for diabetes were shown to significantly improve translation accuracy | 
elvitegravir |  | approximately 8 times |  | 
